The test system of data set [1] is Mus musculus. Briefly: In vivo inhibition of BCR-ABL/T315I mutant expressed in bone marrow cells transplanted in mouse assessed as level of cells expressing gatekeeper mutation at 100 mg/kg, bid measured after 15 days. The data set is classed as functional. Further details: scale not given: the % may be the effect or the level left.
Data set [2] relates to HCC827. Briefly: Cytotoxicity against gefitinib-resistant human HCC827 cells assessed as inhibition of cell proliferation by MTS assay. Type of data set: functional, cell-based.
Data set [3] is described as follows: Cytotoxicity against HGF-induced erlotinib-resistant human Ma1 cells assessed as inhibition of cell growth after 72 hrs by MTT assay. The data set is classed as functional, cell-based. (In general: Tetrazolium dyes change colour on reduction, which living cells bring about.)
Data set [4] relates to PC-9. Nature of the data set: Cytotoxicity against HGF-induced erlotinib-resistant human PC9 cells assessed as inhibition of cell growth after 72 hrs by MTT assay. To be noted: PC-9, 72 h. Type of data set: functional, cell-based.
Data set [5] can be described thus: Inhibition of E6a/b;A20 EML4-ALK (unknown origin) expressed in human NCI-H2228 cells assessed as decrease in cell viability after 72 hrs by CellTiter-Glo luminescence assay. To be noted: NCI-H2228, 72 h. For orientation: ATP-based viability assays read luminescence as a measure of living cells.
A short description of data set [6]: Inhibition of E13;A20 EML4-ALK variant (unknown origin) expressed in human NCI-H3122 cells assessed as decrease in cell viability after 72 hrs by CellTiter-Glo luminescence assay. As to conditions: NCI-H3122, 72 h. Type of data set: cell-based.
Data set [7] can be described thus: Cytotoxicity against human NB39 cells assessed as decrease in cell viability after 72 hrs by CellTiter-Glo luminescence assay. As to conditions: NB39, 72 h.
Data set [8] addresses Bcr/Abl fusion protein (Homo sapiens, UniProt P00519, T315I). Nature of the data set: Inhibition of imatinib-resistant BCR-ABL T315I mutant (unknown origin) expressed in mouse BA/F3 cells assessed as decrease in cell viability after 48 hrs by trypan blue exclusion assay. The data set is classed as cell-based.
Data set [9] has as its target Bcr/Abl fusion protein (Homo sapiens, UniProt P00519, E255K). Briefly: Inhibition of imatinib-resistant BCR-ABL E255K mutant (unknown origin) expressed in mouse BA/F3 cells assessed as decrease in cell viability after 48 hrs by trypan blue exclusion assay. The data set is classed as cell-based.
The target of data set [10] is Bcr/Abl fusion protein (Homo sapiens, UniProt P00519). Nature of the data set: Inhibition of BCR-ABL (unknown origin) expressed in mouse BA/F3 cells assessed as decrease in cell viability after 48 hrs by trypan blue exclusion assay. Type of data set: cell-based.
Data set [11] deals with Mus musculus. Nature of the data set: In vivo inhibition of BCR-ABL/T315I mutant expressed in bone marrow cells transplanted in mouse assessed as level of cells expressing gatekeeper mutation at 50 mg/kg once every 2 days measured after 28 days. Type of data set: functional. Further details: scale not given: the % may be the effect or the level left.
Data set [12] deals with NCI-H3122. Briefly: Cytotoxicity against crizotinib-resistant human NCI-H3122 cells assessed as cell growth inhibition after 72 hrs by trypan blue exclusion assay. The data set is classed as functional. As to conditions: NCI-H3122, 72 h.
Data set [13] in a line: Toxicity in human H1975 cells xenografted in mouse administered ip 3 times per week. As to conditions: in vivo. Type of data set: organism-based. A general note: Xenograft models place foreign cells or tissue in a host animal.
Data set [14] is described as follows: Toxicity in human H3255 cells expressing L858R EGFR mutant xenografted in mouse administered ip 3 times per week. Type of data set: organism-based. As to conditions: in vivo.
Data set [15] in a line: Toxicity in human H1650 cells expressing E746-A750 EGFR deletion mutant xenografted in mouse administered ip 3 times per week. The data set is classed as organism-based. As to conditions: in vivo.
Data set [16] concerns A-375. Nature of the data set: Cytotoxicity against human A375 cells assessed as decrease in cell viability after 72 hrs by CellTiter-Glo luminescence assay. As to conditions: A-375, 72 h. The data set is classed as functional, cell-based.
The nature of data set [17]: cells. To be noted: Homo sapiens, BaF3, 24 h.
Data set [18] concerns A-375. Nature of the data set: animal or person. As to conditions: Mus musculus, A-375, iv, read-out: TGI.
Description: Antitumor activity against vemurafenib-resistant human A375 cells xenografted in mouse assessed as tumor growth inhibition at 150 mg/kg, iv dosed as weekly treatment in presence of selumetinib
In data set [19] the test system is GIST48. Briefly: Cytotoxicity against imatinib-resistant human GIST48 cells assessed as decrease in cell viability after 7 days by alamar blue assay. Type of data set: functional, cell-based. As to conditions: GIST48, 168 h.
Data set [20] deals with GIST430. Briefly: Cytotoxicity against imatinib-resistant human GIST430 cells assessed as decrease in cell viability after 7 days by alamar blue assay. Type of data set: functional, cell-based. As to conditions: GIST430, 168 h.
Data set [21] is described as follows: Toxicity in iv dosed NSCLC patient dosed weekly for 3 weeks on four week cycle during phase-1 clinical trial. Type of data set: organism-based. To be noted: human, in vivo, 504 h.

Turning to `Cc1ccc(NC(=O)c2ccc(CN3CCN(C)CC3)cc2)cc1Nc1nccc(-c2cccnc2)n1` [IMATINIB], the Activity in data set [1] amounted to 81.5%.
The term IC50 denotes the midpoint of a concentration-inhibition curve. Consider `CCNC(=O)c1noc(-c2cc(C(C)C)c(O)cc2O)c1-c1ccc(CN2CCOCC2)cc1` [LUMINESPIB], for which, in data set [2], the IC50 stood at 0.007 µM.
As to `CO[C@H]1/C=C\C=C(/C)C(=O)NC2=CC(=O)C(NCCN(C)C)=C(C[C@@H](C)C[C@H](OC)[C@H](O)[C@@H](C)/C=C(\C)[C@@H]1OC(N)=O)C2=O` [ALVESPIMYCIN], the IC50 in data set [3] and in [4] was 0.01 to 0.03 µM each time.
Take `C[C@@H](Oc1cc(-c2cnn(C3CCNCC3)c2)cnc1N)c1c(Cl)ccc(F)c1Cl` [CRIZOTINIB]: the IC50 in data set [5] worked out at 0.202 µM; in data set [6], 0.3 µM; in data set [7], 0.24 µM.
`COC1=C2C[C@@H](C)C[C@H](OC)[C@H](O)[C@@H](C)/C=C(\C)[C@H](OC(N)=O)[C@@H](OC)/C=C\C=C(/C)C(=O)NC(=CC1=O)C2=O` [GELDANAMYCIN]: the IC50 in data set [8] is 1 to 2 µM; in [9], 1 to 2 µM; in data set [10] it was 5 µM.
The GI50 is the concentration that inhibits growth by half. Take `C=CCNc1c(O)cc2c(O)c1C[C@@H](C)C[C@H](OC)[C@H](O)[C@@H](C)/C=C(\C)[C@H](OC(N)=O)[C@@H](OC)/C=C\C=C(/C)C(=O)N2.Cl` [RETASPIMYCIN HYDROCHLORIDE]: in [11], the Activity was 0.5%. Also, in data set [12], the GI50 worked out at 0.076 µM.
On to `C=CCNC1=C2C[C@@H](C)C[C@H](OC)[C@H](O)[C@@H](C)/C=C(\C)[C@H](OC(N)=O)[C@@H](OC)/C=C\C=C(/C)C(=O)NC(=CC1=O)C2=O` [TANESPIMYCIN], for which the half-maximal inhibitory concentration (IC50) is 1 to 2 µM in data set [8], 1 to 2 µM in [9] and 5 µM in data set [10]. Besides, the MTD in [13], in data set [14] and in data set [15] was 75 mg/kg throughout.
With `CCCS(=O)(=O)Nc1ccc(F)c(C(=O)c2c[nH]c3ncc(-c4ccc(Cl)cc4)cc23)c1F` [VEMURAFENIB], in [16], the IC50 amounted to 0.081 µM.
With `CC(C)c1cc(-c2n[nH]c(=O)n2-c2ccc3c(ccn3C)c2)c(O)cc1O` [GANETESPIB], the IC50 in data set [5] worked out at 0.013 µM; in data set [6] it was 0.01 µM; in data set [17] it was 0.011 µM; in data set [16], 0.015 µM; in [7], 0.01 µM. Further, in data set [18], the inhibition in vivo at 150 mg/kg was determined as 84%.
As for `CC(C)c1cc(C(=O)N2Cc3ccc(CN4CCN(C)CC4)cc3C2)c(O)cc1O` [ONALESPIB], the IC50 was 0.055 µM in data set [19] and 0.034 µM in [20]. Moreover, the MTD in data set [21] is given as 260 mg/m2.

These data come from ChEMBL document CHEMBL4425084, “Development of Heat Shock Protein (Hsp90) Inhibitors To Combat Resistance to Tyrosine Kinase Inhibitors through Hsp90-Kinase Interactions” (J Med Chem, 2016).
